Values joined by “and” are separate entries in the source; they are usually repeats but may differ in a detail not shown here. Equal values may be shown once. Read-outs that look alike come from different tables or passages of the source.
Tests used:
[1] = biological target: T1, death-associated protein kinase-related apoptosis-inducing protein kinase 1 (DRAK1) (Homo sapiens, UniProt Q9UEE5); assay: Off-target kinase screen DRAK1; assay type: biochemical; conditions: 1 μM test compound
T1 sequence (Q9UEE5 1-414): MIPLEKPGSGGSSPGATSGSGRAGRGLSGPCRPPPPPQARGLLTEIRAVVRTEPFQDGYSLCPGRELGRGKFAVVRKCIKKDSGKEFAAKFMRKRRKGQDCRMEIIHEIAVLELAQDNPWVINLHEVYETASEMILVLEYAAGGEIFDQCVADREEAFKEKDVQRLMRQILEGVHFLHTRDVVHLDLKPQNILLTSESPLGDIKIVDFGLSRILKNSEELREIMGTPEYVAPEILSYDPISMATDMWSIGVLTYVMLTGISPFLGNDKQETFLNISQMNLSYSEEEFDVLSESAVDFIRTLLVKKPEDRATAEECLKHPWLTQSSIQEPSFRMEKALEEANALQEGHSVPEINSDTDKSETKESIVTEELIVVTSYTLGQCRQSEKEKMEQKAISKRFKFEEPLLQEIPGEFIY
Source text: These kinases were chosen because they are the only known off-target hit kinases for eFT508. These assays were done using recombinant human kinases (CLK4, DRAK1 and PKG2) in a substrate phosphorylation assay. % activity remaining after MNK inhibitor treatment is indicated in Table 12.

P-gp (human MDR1, ABCB1) = assay: MDCK-MDR1 permeability (blood brain barrier permeability); assay type: in vitro ADME, Canine; conditions: dog; for efflux ratio at 5 μM: MDCK-MDR1, 5 μM, read-out: Efflux ratio (ratio B-A/A-B); for Papp A→B at 5 μM: MDCK-MDR1, Apical to basolateral transport; for Papp A→B at 5 μM / Papp B→A at 5 μM: average of two experiments; for Papp B→A at 5 μM: MDCK-MDR1, Basolateral to apical transport
[2] = Liver microsome stability, human; assay type: in vitro ADME; conditions: liver microsomes
p-eIF4E = assay: Western blot of eIF4E and p-eIF4E in tissues, 4ET-03-009; assay type: in vivo, mice; conditions: 10 mg/kg oral, 2 hours after dosing, vs vehicle
Experimental: In separate mice administered the same therapy, 2 hours after dosing tissues were harvested from the sciatic nerve, liver, brain, and DRG and homogenized, then subjected to Western blot analysis for eIF4E and p-eIF4E. Control mice administered only the solvent vehicle with no MNK inhibitor were also assayed. Amounts of p-eIF4E in each tissue based on the mean for all three mice administered the therapeutic and based on the mean for all three control mice are presented in FIG. 2, right panel. […] Units on the y-axis are % of signal standardized to the control.

MNK1 = MNK1 (Homo sapiens, UniProt Q9BUB5); assay: MNK1 substrate phosphorylation assay; assay type: biochemical; conditions: recombinant human kinase
Sequence of MNK1 (Q9BUB5 whole entry): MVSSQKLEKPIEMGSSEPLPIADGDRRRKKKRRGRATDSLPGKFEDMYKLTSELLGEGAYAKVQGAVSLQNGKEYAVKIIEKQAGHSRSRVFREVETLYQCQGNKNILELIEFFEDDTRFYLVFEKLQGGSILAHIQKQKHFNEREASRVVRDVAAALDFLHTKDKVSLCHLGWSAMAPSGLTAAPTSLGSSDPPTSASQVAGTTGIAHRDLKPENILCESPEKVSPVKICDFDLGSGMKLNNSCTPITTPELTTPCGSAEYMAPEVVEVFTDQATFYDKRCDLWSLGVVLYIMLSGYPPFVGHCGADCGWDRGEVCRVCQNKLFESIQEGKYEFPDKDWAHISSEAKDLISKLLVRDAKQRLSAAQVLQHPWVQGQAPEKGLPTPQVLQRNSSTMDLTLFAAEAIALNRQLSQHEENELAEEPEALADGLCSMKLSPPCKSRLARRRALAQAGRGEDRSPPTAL

[3] = tested on: eIF4E phosphorylation at Serine 209 in the human embryonic kidney (HEK) 293 cell line; assay: eIF4E phosphorylation in HEK 293 cells (fluorescent plate reader); assay type: cell-based; conditions: Homo sapiens, HEK293, 2 h, eIF4E phosphorylation at Serine 209, 2 hours exposure
In short: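 HEK-293 cells were treated with compound for 2 h, then methanol-fixed and Triton-permeabilized. Ser209 phospho-eIF4E was stained with primary antibody (1:2000, overnight) and an Alexa Fluor 488 secondary. Fluorescence was normalized to DAPI, and IC50 was fitted from concentration-response data.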

[4] = Liver microsome stability, rat; assay type: in vitro ADME; conditions: Rat liver microsomes (#)
MNK2 = MNK2 (Homo sapiens, UniProt Q9HBH9); assay: MNK2 substrate phosphorylation assay; assay type: biochemical; conditions: recombinant human kinase
Sequence of MNK2 (Q9HBH9 whole entry): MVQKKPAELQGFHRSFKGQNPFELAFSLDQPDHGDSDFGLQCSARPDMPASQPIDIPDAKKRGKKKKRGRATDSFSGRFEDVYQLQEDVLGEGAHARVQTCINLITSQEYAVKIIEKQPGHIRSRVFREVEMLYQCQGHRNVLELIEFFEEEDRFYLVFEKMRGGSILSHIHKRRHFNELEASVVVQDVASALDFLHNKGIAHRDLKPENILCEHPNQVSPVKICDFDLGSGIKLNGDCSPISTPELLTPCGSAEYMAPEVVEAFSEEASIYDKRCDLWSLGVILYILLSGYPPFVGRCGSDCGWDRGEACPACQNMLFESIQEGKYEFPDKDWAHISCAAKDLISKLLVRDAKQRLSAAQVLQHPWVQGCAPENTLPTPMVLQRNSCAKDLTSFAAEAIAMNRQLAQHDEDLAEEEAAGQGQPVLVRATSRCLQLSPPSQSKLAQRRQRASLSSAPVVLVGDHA

[5] = Pharmacokinetic study, 4ET-01-021 with IV and PO dosing; assay type: in vivo, CD-1 male mice; conditions: for concentration at 24 h: read-out: Clast; for bioavailability: read-out: F (oral bioavailability)
Experimental: 4ET-01-021 was dissolved in 10% dimethylacetamide (DMA)/90% propylene glycol (PG) for oral dosing and 10% DMI (dimethyl isosorbide)/15% EtOH (ethanol)/35% PG (propylene glycol)/40% NS (normal saline) for IV dosing. CD-1 male mice were dosed with 4ET-01-021 at 1.0 mg/kg (IV), 3.0 mg/kg (PO), or 10.0 mg/kg (PO). Plasma was collected at indicated timepoints and plasma concentration of 4ET-01-021 was measured using liquid chromatography-mass spectrometry/mass spectrometry (LC-MS/MS).
In mice, following IV administration with 1.0 mg/kg, plasma concentrations declined in a multiphasic manner with an initial concentration (Co) of 0.860 μg/mL and a last measurable concentration (Clast) of 19.3 ng/mL at 24 h post dose. […] Results are presented in Table 13; mean values averaged for 3 animals are shown.
Results are presented in Table 14; mean values averaged for 3 animals are shown.
Results are presented in Table 15; mean values averaged for 3 animals are shown.

[6] = Brain to plasma ratio, 4ET-01-021 at 3.0 mg/kg PO; assay type: in vivo, male CD-1 mouse; conditions: for concentration at 2 h: oral, 3 mg/kg
[7] = IV 1.0 mg/kg, mean of 3 animals
[8] = male, CD-1, mouse, plasma, po, orally dosed at 3 mg/kg, mean of 3 animals
[9] = male, CD-1, mouse, plasma, po, orally dosed at 10 mg/kg, mean of 3 animals
[10] = male, CD-1, mouse, plasma, IV 1.0 mg/kg, mean of 3 animals
[11] = orally dosed at 3 mg/kg, mean of 3 animals
[12] = orally dosed at 10 mg/kg, mean of 3 animals

Q: Which remaining activity at 1 µM [1] does the source give for Cc1cc(Nc2cc(NC(=O)C3CC3)ncn2)c(=O)n2c1C(=O)NC21CCOCC1 [Compound 4ET-03-009, N-(6-((8-Methyl-1,5-dioxo-1,2′,3′,5,5′,6′-hexahydro-2H-spiro[imidazo[1,5-a]pyridine-3,4′-pyran]-6-yl)amino)pyrimidin-4-yl)cyclopropanecarboxamide] here?
A: 16%

Q: And the efflux ratio at 5 μM (P-gp (human MDR1, ABCB1))?
A: 4.6

Q: What about the Papp A→B at 5 μM (P-gp (human MDR1, ABCB1)) of the same compound?
A: 5.4 ×10⁻⁶ cm/s

Q: What about the Papp B→A at 5 μM (P-gp (human MDR1, ABCB1)) of the same compound?
A: 25 ×10⁻⁶ cm/s

Q: And the microsomal CLint [2]?
A: 2.16 µL/min/mg

Q: What about the half-life ([2]; read-out: Human liver microsomes t1/2) of the same compound?
A: 10.7 h

Q: What about the “p-eIF4E in sciatic nerve, liver, brain and DRG” value (p-eIF4E) of the same compound?
A: significantly decreased peIF4E in all tissues assayed

Q: What about the IC50 (MNK1) of the same compound?
A: 31.3 nM

Q: What about the IC50 [3] of the same compound?
A: 1.7 nM

Q: And the microsomal CLint ([4]; read-out: CLint rodent)?
A: 2.54 µL/min/mg

Q: What about the half-life ([4]; read-out: Rodent liver microsomes t1/2) of the same compound?
A: 9.08 h

Q: And the IC50 (MNK2)?
A: 2.6 nM

Q: Which results are given for CCC1=CC2(CCC1)NC(=O)c1c(C)cc(Nc3cc(N)ncn3)c(=O)n12 (stereo not drawn) [Compound 4ET-01-021, 6′-((6-Aminopyrimidin-4-yl)amino)-3-ethyl-8′-methyl-2′H-spiro[cyclohexane-1,3′-imidazo[1,5-a]pyridin]-2-ene-1′,5′-dione]?
A: efflux ratio at 5 μM (P-gp (human MDR1, ABCB1)): 0.9; Papp A→B at 5 μM (P-gp (human MDR1, ABCB1)): 55.3 ×10⁻⁶ cm/s; Papp B→A at 5 μM (P-gp (human MDR1, ABCB1)): 52 ×10⁻⁶ cm/s; AUConf/D [5, 7]: 2420 kg·h/kL; Tlast [5, 7]: 24.0 h; V55 [5, 7]: 3.49 L/kg; AUC(0-inf) ([5]; male, CD-1, mouse, plasma, iv, 1 mg/kg, IV 1.0 mg/kg, mean of 3 animals, read-out: AUCinf): 2420 ng·h/mL; AUC(0-inf) ([5]; male, CD-1, mouse, plasma, iv, 1 mg/kg, IV 1.0 mg/kg, read-out: total systemic exposure (AUCinf)): 2420 ng·h/mL; AUC(0-inf) ([5]; male, CD-1, mouse, plasma, po, 3 mg/kg, oral 3 mg/kg, read-out: total systemic exposure (AUCinf)): 4500 ng·h/mL; AUC(0-inf) ([5]; male, CD-1, mouse, plasma, po, 3 mg/kg, orally dosed at 3 mg/kg, mean of 3 animals, read-out: AUCinf): 4500 ng·h/mL; AUC(0-inf) ([5]; male, CD-1, mouse, plasma, po, 10 mg/kg, oral 10 mg/kg, read-out: total systemic exposure (AUCinf)): 12000 ng·h/mL; AUC(0-inf) ([5]; male, CD-1, mouse, plasma, po, 10 mg/kg, orally dosed at 10 mg/kg, mean of 3 animals, read-out: AUCinf): 12000 ng·h/mL; AUC(0-t) [5, 8]: 4130 ng·h/mL; Cmax [5, 8]: 643 ng/mL; MRT inf [5, 8]: 8.41 h; Tmax [5, 8]: 0.5 h; half-life [5, 8]: 7.11 h; concentration at 24 h [5, 8]: 36.3 ng/mL; bioavailability [5, 8]: 61.9%; AUC(0-t) [5, 9]: 11000 ng·h/mL; Cmax [5, 9]: 1900 ng/mL; MRT inf [5, 9]: 8.51 h; Tmax [5, 9]: 0.25 h; half-life [5, 9]: 7.44 h; concentration at 24 h [5, 9]: 99.5 ng/mL; bioavailability [5, 9]: 49.6%; AUC(0-t) [5, 10]: 2190 ng·h/mL; MRT inf [5, 10]: 8.32 h; half-life [5, 10]: 8.42 h; clearance ([5]; male, CD-1, mouse, plasma, IV 1.0 mg/kg, mean of 3 animals, read-out: CLp): 6.97 mL/min/kg; concentration at 24 h [5, 10]: 19.3 ng/mL; Vd ([5]; male, CD-1, mouse, plasma, IV 1.0 mg/kg, mean of 3 animals, read-out: Vz): 5.1 L/kg; C0 ([5]; male, CD-1, mouse, plasma, IV 1.0 mg/kg, read-out: initial concentration (Co)): 860 ng/mL; AUCinf/D [5, 11]: 1500 kg·h/kL; Tlast [5, 11]: 24 h; AUCinf/D [5, 12]: 1202 kg·h/kL; Tlast [5, 12]: 24 h; IC50 (MNK1): 38.7 nM; Tissue Homogenate Concentration ([6]; 2 hr, Brain, individual): 17.6 ng/mL and 12.2 ng/mL; Plasma Concentration ([6]; 2 hr, Plasma, individual): 462 ng/mL and 383 ng/mL; Kp at 2 h ([6]; male, CD-1, mouse, 2 h post dosing, Brain, read-out: Mean tissue/plasma concentration ratio (B:P ratio)): 0.142; concentration at 2 h ([6]; male, CD-1, mouse, brain homogenate, 2 h, Brain, read-out: Mean (brain homogenate)): 14.8 ng/mL; concentration at 2 h ([6]; male, CD-1, mouse, brain homogenate, 2 hr, Brain, individual, read-out: Tissue Homogenate Concentration): 14.5 ng/mL; concentration at 2 h ([6]; male, CD-1, mouse, brain, 2 h, Brain, read-out: Mean Tissue): 59.1 ng/g; concentration at 2 h ([6]; male, CD-1, mouse, plasma, 2 h, Plasma, read-out: Mean (plasma)): 416 ng/mL; concentration at 2 h ([6]; male, CD-1, mouse, plasma, 2 hr, Plasma, individual, read-out: Plasma Concentration): 404 ng/mL; IC50 [3]: 6 nM; IC50 (MNK2): 5.8 nM
